# Laboratory results as given in patent US12642270B2, “Substituted thiophene carboxamides, thiophene carboxylic acids and derivatives thereof” (Bayer Aktiengesellschaft, priority 2019, dated 2026).
# Test: Log P by HPLC on reversed phase columns (EEC directive 79/831 Annex V.A8)
# Type: physicochemical
# Conditions: method [a]
# Procedure, shortened: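 Values come from retention times calibrated against alkan-2-ones (3–16 carbons) by linear interpolation, using reversed-phase LC-UV per EEC directive 79/831 Annex V.A8. Acetonitrile gradient 10–95% with 0.1% formic acid [a], 0.001 M ammonium acetate [b] or 0.1% phosphoric acid [c]; several values within one method separated by "+".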
row,Structure (SMILES),LogP
1,COC(=O)C(C)(C)NC(=O)c1sc(C#N)c(Cl)c1Cl [1.0574],2.90^[a]
2,CCOC(=O)C(NC(=O)c1sc(C#N)c(Cl)c1Cl)C(C)C (stereo not shown) [1.0575],3.89^[a]
3,COC(=O)C(NC(=O)c1sc(C#N)c(Cl)c1Cl)C1CC1 (stereo not shown) [1.0576],3.05^[a]
4,CCOC(=O)C(Cc1ccccc1)NC(=O)c1sc(C#N)c(Cl)c1Cl (stereo not shown) [1.0577],4.11^[a]
5,COC(=O)C1(NC(=O)c2sc(C#N)c(Cl)c2Cl)CCC1 [1.0578],2.94^[a]
6,CCOC(=O)C1(NC(=O)c2sc(C#N)c(Cl)c2Cl)CCC1 [1.0579],3.35^[a]
7,CCCOC(=O)C1(NC(=O)c2sc(C#N)c(Cl)c2Cl)CC1 [1.0580],3.15^[a]
8,N#Cc1sc(C(=O)NC2(C(=O)OC3CCC3)CC2)c(Cl)c1Cl [1.0581],3.30^[a]
9,N#CCNC(=O)c1sc(C#N)c(Cl)c1Cl [1.0582],2.04^[a]
10,CCOC(=O)CNC(=O)c1sc(Cl)c(Br)c1C#N [1.0583],2.56^[a]
11,COC(=O)CNC(=O)c1sc(Cl)c(Br)c1C#N [1.0584],2.20^[a]
12,CCOC(=O)C1(NC(=O)c2sc(Cl)c(Br)c2C#N)CC1 [1.0585],2.70^[a]
13,CCOC(=O)C(Cc1ccccc1)NC(=O)c1sc(C#N)c(Br)c1Cl (stereo not shown) [1.0586],4.13^[a]
14,COC(=O)C(NC(=O)c1sc(C#N)c(Br)c1Cl)C1CC1 (stereo not shown) [1.0587],3.08^[a]
15,CCOC(=O)C(NC(=O)c1sc(C#N)c(Br)c1Cl)C(C)C (stereo not shown) [1.0588],3.92^[a]
16,COC(=O)C(C)(C)NC(=O)c1sc(C#N)c(Br)c1Cl [1.0589],2.93^[a]
17,Cc1c(C(=O)NC2(C(=O)OC3CCC3)CC2)sc(Cl)c1Br [1.0590],3.81^[a]
18,CCCOC(=O)C1(NC(=O)c2sc(Br)c(Cl)c2F)CC1 [1.0591],3.56^[a]
19,O=C(NC1(C(=O)OC2CCC2)CC1)c1sc(Br)c(Cl)c1F [1.0592],3.72^[a]
20,CCCOC(=O)C1(NC(=O)c2sc(Cl)c(Br)c2Br)CC1 [1.0593],3.98^[a]

row,Structure (SMILES),LogP
1,O=C(NC1(C(=O)OC2CCC2)CC1)c1sc(Cl)c(Br)c1Br [1.0594],4.20^[a]
2,COC(=O)C1(NC(=O)c2sc(Cl)c(Br)c2Cl)CC1 [1.0595],3.11^[a]
3,CCCOC(=O)C1(NC(=O)c2sc(Cl)c(Br)c2Cl)CC1 [1.0596],3.98^[a]
4,O=C(NC1(C(=O)OC2CCC2)CC1)c1sc(Cl)c(Br)c1Cl [1.0597],4.15^[a]
5,CCCOC(=O)C1(NC(=O)c2cc(Cl)c(Br)s2)CC1 [1.0598],3.28^[a]
6,O=C(NC1(C(=O)OC2CCC2)CC1)c1cc(Cl)c(Br)s1 [1.0599],3.43^[a]
7,COC(=O)C1(NC(=O)c2sc(Cl)c(Br)c2C#N)CC1 [1.0600],2.36^[a]
8,CCCOC(=O)C1(NC(=O)c2cc(Br)c(Cl)s2)CC1 [1.0601],3.43^[a]
9,COC(=O)C1(NC(=O)c2sc(C#N)c(Br)c2Cl)CC1 [1.0602],2.44^[a]
10,COC(=O)C1(NC(=O)c2sc(Cl)c(Br)c2F)CC1 [1.0603],2.70^[a]
11,CCOC(=O)CNC(=O)c1sc(C#N)c(Br)c1Cl [1.0604],2.63^[a]
12,COC(=O)CNC(=O)c1sc(C#N)c(Br)c1Cl [1.0605],2.24^[a]
13,CCOC(=O)C1(NC(=O)c2sc(C#N)c(Br)c2Cl)CC1 [1.0606],2.79^[a]
14,O=C(NC1(C(=O)OC2CCC2)CC1)c1cc(Br)c(Cl)s1 [1.0607],3.46^[a]
15,COC(=O)C(C)(C)NC(=O)c1sc(Cl)c(Br)c1C#N [1.0608],2.77^[a]
16,CCOC(=O)C(NC(=O)c1sc(Cl)c(Br)c1C#N)C(C)C (stereo not shown) [1.0609],3.81^[a]
17,COC(=O)C(NC(=O)c1sc(Cl)c(Br)c1C#N)C1CC1 (stereo not shown) [1.0610],2.93^[a]
18,CC(C)OC(=O)C1(NC(=O)c2sc(Cl)c(Cl)c2Br)CCC1 [1.0611],4.69^[a]
19,COC(=O)C1(NC(=O)c2sc(Cl)c(Cl)c2Br)CC(C)(C)C1 [1.0612],4.50^[a]
20,COC(=O)C1(NC(=O)c2sc(Cl)c(Cl)c2Br)CCC1 [1.0613],3.67^[a]
